Assays:
CB1 receptor [1] = biological target: T1, CB1 receptor (UniProt P20272); test: In-vitro determination of affinity to CB1/CB2-receptors (radioligand [3H]-CP55940 binding)
T1 construct: other: compound at 10^−7 M; radioligand [3H]-CP55940; other: compound at 10^−8 M
Procedure, shortened: (§1)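 Transfected human CB1/CB2 receptors were tested with [3H]-CP55940. In the modified Govaerts method, rat cerebellum membranes (100 µg protein) were incubated with 1 nM [3H]-CP55940 and compound for 1 h at 30 °C in Tris-HCl/MgCl2/EDTA/0.5% BSA, pH 7.4, with 10 µM HU-210 defining non-specific binding. Filter-bound radioactivity was counted in triplicate and analysed by non-linear regression.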

CB1 receptor [2] = biological target: T2, CB1 receptor; test: as above; conditions: binding data per pharmacological methods part I, table does not say whether human transfected receptor or rat cerebellum
T2 construct: IC50 [nM]; radioligand [3H]-CP55940
Procedure, shortened: as §1

[3] = biological target: recombinant human cannabinoid 1 receptor (CB1) (Homo sapiens, UniProt P21554); test: In vitro determination of antagonism to CB1-receptor ([35S]GTPγS binding assay, CHO cell membranes); format: biochemical; conditions: compound at 1 μM against agonist WIN 55,212-2 (3 nM to 3 μM); effect of Rimonabant (1 μM) defined as 100%
recombinant human cannabinoid 1 receptor (CB1), sequence (P21554 whole entry): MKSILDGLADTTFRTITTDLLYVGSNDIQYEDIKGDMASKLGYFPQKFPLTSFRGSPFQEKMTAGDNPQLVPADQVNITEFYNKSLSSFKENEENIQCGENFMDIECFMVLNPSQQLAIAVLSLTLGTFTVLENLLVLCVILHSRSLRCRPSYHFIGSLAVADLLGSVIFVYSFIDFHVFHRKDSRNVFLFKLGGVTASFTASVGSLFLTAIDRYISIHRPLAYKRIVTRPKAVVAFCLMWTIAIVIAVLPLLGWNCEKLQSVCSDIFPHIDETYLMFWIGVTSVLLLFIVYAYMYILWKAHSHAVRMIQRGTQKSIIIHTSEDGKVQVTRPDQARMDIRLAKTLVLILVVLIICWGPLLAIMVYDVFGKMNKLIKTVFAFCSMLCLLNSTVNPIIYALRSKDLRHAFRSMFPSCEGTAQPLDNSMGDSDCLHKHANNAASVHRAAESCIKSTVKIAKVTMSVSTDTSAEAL
Procedure, shortened: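 Membranes from CHO cells stably expressing human CB1 (15 μg protein/well) incubated 60 min at 30° C., pH 7.4, with 5 μM GDP, saponin and 0.5 nM [35S]GTPγS, compound at 1 μM final, with or without WIN 55,212-2 (3 nM–3 μM). Bound radioactivity via filtration; basal subtracted, antagonism scaled to WIN 55,212-2 ± Rimonabant (1 μM) window as 100%.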

| SMILES | Inhibition [%], 10^−7 M (CB1 receptor [1]; compound at 10^−7 M) [%] | Inhibition [%], 10^−8 M (CB1 receptor [1]; compound at 10^−8 M) [%] | IC50 (CB1 receptor [2]) [nM] | Antagonism [%] [3] [%] | IC50 (CB1 receptor [2]; hydrochloride) [nM] |
| --- | --- | --- | --- | --- | --- |
| CC1Cc2ccccc2N1NC(=O)C1=NN(c2ccc(Cl)cc2Cl)C(c2ccc(Cl)cc2)C1 (stereo not drawn) [Example 27, 5-(4-Chloro-phenyl)-1-(2,4-dichloro-phenyl)-4,5-dihydro-1H-pyrazole-3-carboxylic acid (2-methyl-2,3-dihydro-indol-1-yl)-amide] | 50.7 | 32.9 | 117 | 31 |  |
| O=C(C1=NN(c2ccc(Cl)cc2Cl)C(c2ccc(Cl)cc2)C1)N1CC=CCC1 (stereo not drawn) [Example 74, [5-(4-Chloro-phenyl)-1-(2,4-dichloro-phenyl)-4,5-dihydro-1H-pyrazol-3-yl]-(3,6-dihydro-2H-pyridin-1-yl)-methanone] |  |  | 794 | 44 |  |
| O=C(C1=NN(c2ccc(Cl)cc2Cl)C(c2ccc(Cl)cc2)C1)N1C=NCCC1 (stereo not drawn) [Example 75, [5-(4-Chloro-phenyl)-1-(2,4-dichloro-phenyl)-4,5-dihydro-1H-pyrazol-3-yl]-(5,6-dihydro-4H-pyrimidin-1-yl)-methanone] |  |  | > 1000 | 42 |  |
| O=C(NC1CCCc2ccccc21)C1=NN(c2ccc(Cl)cc2Cl)C(c2ccc(Cl)cc2)C1 (stereo not drawn) [Example 76, 5-(4-Chloro-phenyl)-1-(2,4-dichloro-phenyl)-4,5-dihydro-1H-pyrazole-3-carboxylic acid (1,2,3,4-tetrahydro-naphthalen-1-yl)-amide] |  |  | 398 | 57 |  |
| C[C@@H]1CN(C(=O)C2=NN(c3ccc(Cl)cc3Cl)C(c3ccc(Cl)cc3)C2)C[C@H](C)O1 (stereo partly drawn) [Example 80, [5-(4-Chloro-phenyl)-1-(2,4-dichloro-phenyl)-4,5-dihydro-1H-pyrazol-3-yl]-(2,6-dimethyl-morpholin-4-yl)-methanone] |  |  | 501 | 56 |  |
| O=C(C1=NN(c2ccc(Cl)cc2Cl)C(c2ccc(Cl)cc2)C1)N1CCCc2ccccc21 (stereo not drawn) [Example 81, [5-(4-Chloro-phenyl)-1-(2,4-dichloro-phenyl)-4,5-dihydro-1H-pyrazol-3-yl]-(3,4-dihydro-2H-quinolin-1-yl)-methanone] |  |  | 708 | 20 |  |
| COc1ccc(C2CC(C(=O)NN3CCCCC3)=NN2c2ccc(Cl)cc2Cl)cc1 (stereo not drawn) [Example 106A, 1-(2,4-Dichloro-phenyl)-5-(4-methoxy-phenyl)-4,5-dihydro-1H-pyrazole-3-carboxylic acid piperidin-1-ylamide] |  |  | 20 | 112 |  |
| CC1CCCC(C)N1NC(=O)C1=NN(c2ccc(Cl)cc2Cl)C(c2ccc(Cl)cc2)C1.Cl (stereo not drawn) [Example 192, 5-(4-Chloro-phenyl)-1-(2,4-dichloro-phenyl)-4,5-dihydro-1H-pyrazole-3-carboxylic acid (2,6-dimethyl-piperidin-1-yl)-amide hydrochloride] |  |  |  | 63 | 501 |
